This assay addresses human NaV 1.8 channels stably expressed in HEK 293 cells (Homo sapiens (Human), UniProt Q9Y5Y9). As to the kind of experiment: Nav1.8 Qube automated patch-clamp assay. Type of assay: cell-based. The settings on record: human NaV1.8 in HEK 293 cells, whole-cell voltage clamp, room temperature; read-out: IC50 values (nM) for Examples in the Nav1.8 Qube Assay. An outline of the steps:
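Whole-cell voltage clamp at room temperature on HEK293 cells; from −90 mV, a 10 s 1 Hz train of 20 ms pulses to 10 mV (repolarising to −67 mV) was applied. Peak currents at pulses 1 and 10 gave resting- and inactivated-state inhibition; IC50 fitted by Hill equation. Internal CsF/CsCl buffer.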

The results in this text go back to US20240246932A1 (Merck Sharp & Dohme LLC, priority 2021, published 2024).

Each structure is given as a SMILES string.

human NaV 1.8 channels stably expressed in HEK 293 cells, sequence (Q9Y5Y9 whole entry): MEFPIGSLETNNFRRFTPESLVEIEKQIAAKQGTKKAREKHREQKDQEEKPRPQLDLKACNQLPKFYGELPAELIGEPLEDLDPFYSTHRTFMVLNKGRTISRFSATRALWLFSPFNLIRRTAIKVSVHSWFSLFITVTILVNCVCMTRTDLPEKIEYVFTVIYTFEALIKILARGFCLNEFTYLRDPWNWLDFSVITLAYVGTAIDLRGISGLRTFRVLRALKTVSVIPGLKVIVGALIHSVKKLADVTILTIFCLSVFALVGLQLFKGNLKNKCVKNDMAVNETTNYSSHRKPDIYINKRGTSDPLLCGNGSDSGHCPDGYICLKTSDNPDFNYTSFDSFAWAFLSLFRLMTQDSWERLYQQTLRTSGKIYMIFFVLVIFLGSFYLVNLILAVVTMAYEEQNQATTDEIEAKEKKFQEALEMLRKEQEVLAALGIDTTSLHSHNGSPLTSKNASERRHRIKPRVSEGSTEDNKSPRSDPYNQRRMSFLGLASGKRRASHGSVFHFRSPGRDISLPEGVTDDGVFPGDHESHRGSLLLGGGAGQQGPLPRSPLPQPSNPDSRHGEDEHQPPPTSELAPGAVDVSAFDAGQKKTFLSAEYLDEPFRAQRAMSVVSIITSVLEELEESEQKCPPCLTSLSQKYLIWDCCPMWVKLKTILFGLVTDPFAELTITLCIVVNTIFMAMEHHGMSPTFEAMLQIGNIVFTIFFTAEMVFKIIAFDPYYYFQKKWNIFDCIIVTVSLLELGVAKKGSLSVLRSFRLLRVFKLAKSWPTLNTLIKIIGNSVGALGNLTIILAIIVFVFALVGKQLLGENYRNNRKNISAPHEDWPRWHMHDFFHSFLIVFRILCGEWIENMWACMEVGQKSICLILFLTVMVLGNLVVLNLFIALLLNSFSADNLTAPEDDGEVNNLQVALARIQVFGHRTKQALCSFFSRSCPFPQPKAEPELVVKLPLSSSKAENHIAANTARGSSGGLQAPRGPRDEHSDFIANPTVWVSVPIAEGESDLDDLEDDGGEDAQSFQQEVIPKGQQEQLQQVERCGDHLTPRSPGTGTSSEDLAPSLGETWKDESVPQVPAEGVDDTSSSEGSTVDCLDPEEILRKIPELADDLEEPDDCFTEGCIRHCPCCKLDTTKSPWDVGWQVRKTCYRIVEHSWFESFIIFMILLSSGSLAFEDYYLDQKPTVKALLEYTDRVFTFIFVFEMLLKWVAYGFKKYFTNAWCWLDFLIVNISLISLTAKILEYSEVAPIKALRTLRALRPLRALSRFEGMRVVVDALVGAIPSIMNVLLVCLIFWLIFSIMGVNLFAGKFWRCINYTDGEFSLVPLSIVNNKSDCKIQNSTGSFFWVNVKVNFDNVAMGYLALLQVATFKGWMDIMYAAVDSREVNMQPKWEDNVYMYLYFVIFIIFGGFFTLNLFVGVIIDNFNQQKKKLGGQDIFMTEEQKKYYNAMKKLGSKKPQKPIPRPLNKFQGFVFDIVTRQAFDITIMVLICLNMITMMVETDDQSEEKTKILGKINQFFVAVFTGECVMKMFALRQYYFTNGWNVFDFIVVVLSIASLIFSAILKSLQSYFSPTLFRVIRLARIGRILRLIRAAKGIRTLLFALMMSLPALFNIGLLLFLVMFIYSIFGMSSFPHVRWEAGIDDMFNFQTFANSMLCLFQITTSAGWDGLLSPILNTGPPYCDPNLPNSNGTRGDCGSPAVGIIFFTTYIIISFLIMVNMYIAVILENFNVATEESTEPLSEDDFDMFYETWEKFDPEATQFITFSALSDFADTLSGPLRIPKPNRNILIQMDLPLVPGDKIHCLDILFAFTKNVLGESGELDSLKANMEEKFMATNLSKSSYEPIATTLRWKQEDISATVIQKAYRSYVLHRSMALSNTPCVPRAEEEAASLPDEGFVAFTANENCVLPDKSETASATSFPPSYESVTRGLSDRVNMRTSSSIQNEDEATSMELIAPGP

Usually IC50 stands for the concentration that gives 50% inhibition. On to `C[C@@H]1C(=O)NCCN1C(=O)NC(c1cnc(OC(F)F)nc1)c1ccc(F)c(Cl)c1F` (single isomer, unassigned) [Example 74B, (2R)-N-((S or R)-(3-chloro-2,4-difluorophenyl)(2-(difluoromethoxy)pyrimidin-5-yl)methyl)-2-methyl-3-oxopiperazine-1-carboxamide], for which the IC50 was 1320 nM.

On to `C[C@@H]1C(=O)NCCN1C(=O)NC(c1ccnc(OCC(F)(F)F)c1)c1ccc(F)c(Cl)c1` (single isomer, unassigned) [Example 71A, (2R)-N-((R or S)-(3-chloro-4-fluorophenyl)(2-(2,2,2-trifluoro-ethoxy)pyridin-4-yl)methyl)-2-methyl-3-oxopiperazine-1-carboxamide], for which the IC50 is 82.6 nM.

As to `C[C@@H]1C(=O)NCCN1C(=O)NC(c1ccc(C(F)(F)F)nc1)c1ccc(F)c(OC(F)(F)F)c1` (single isomer, unassigned) [Example 19A, (2R)-N-((R or S)-(4-fluoro-3-(trifluoro-methoxy)phenyl)(6-(trifluoromethyl)pyridin-3-yl)methyl)-2-methyl-3-oxopiperazine-1-carboxamide], the IC50 was found to be 41.1 nM.

For the compound `C[C@@H]1C(=O)NCCN1C(=O)NC(c1ccc(OC(F)(F)F)c(F)c1)c1cnc(C(F)(F)F)c(Cl)c1` (single isomer, unassigned) [Example 21A, (2R)-N-((R or S)-(5-chloro-6-(trifluoro-methyl)pyridin-3-yl)(3-fluoro-4-(trifluoromethoxy)phenyl)methyl)-2-methyl-3-oxopiperazine-1-carboxamide], the IC50 was 1.45 nM.

In the case of `O=C1NCCN(C(=O)NC(c2cnc(C(F)(F)F)c(F)c2)c2ccc(F)c(Cl)c2F)C1C1CC1` (single isomer, unassigned) [Example 37A, N-(R or S)-(3-chloro-2,4-difluorophenyl)(5-fluoro-6-(trifluoro-methyl)pyridin-3-yl)methyl)-(R or S)-2-cyclopropyl-3-oxopiperazine-1-carboxamide], the IC50 was 1.85 nM.

For the compound `C[C@@H]1C(=O)NCCN1C(=O)NC(c1ccc(Cl)c(C#N)c1)c1ccc(F)c(C(F)(F)F)n1` (single isomer, unassigned) [Example 52A, (2R)-N-((R or S)-(4-chloro-3-cyano-phenyl)(5-fluoro-6-(trifluoromethyl)pyridin-2-yl)methyl)-2-methyl-3-oxopiperazine-1-carboxamide], the 50% inhibitory concentration (IC50) came out at 5.79 nM.

As for `O=C1CN(C(=O)NC(c2ccc(F)c(Cl)c2)c2cccc(C(F)(F)F)n2)[C@H](CF)CN1` (single isomer, unassigned) [Example 47B, (2S)-N-((R or S)-(3-chloro-4-fluoro-phenyl)(6-(trifluoro-methyl)pyridin-2-yl)methyl)-2-(fluoromethyl)-5-oxopiperazine-1-carboxamide], the IC50 amounted to 3760 nM.

With `C[C@@H]1C(=O)NCCN1C(=O)NC(c1cnc(C2CC2)c(Cl)c1)c1ccc(F)c(Cl)c1F` (single isomer, unassigned) [Example 27B, (2R)-N-((S or R)-(3-chloro-2,4-difluorophenyl)(5-chloro-6-cyclopropylpyridin-3-yl)methyl)-2-methyl-3-oxopiperazine-1-carboxamide], the IC50 was 2.88 nM.

Regarding `C[C@@H]1C(=O)NCCN1C(=O)NC(c1ccc(OCC(F)(F)F)nc1)c1cc(F)c(F)c(Cl)c1` (single isomer, unassigned) [Example 7A, (2R)-N-((R or S)-(3-chloro-4,5-difluorophenyl)(6-(2,2,2-trifluoro-ethoxy)pyridin-3-yl)methyl)-2-methyl-3-oxopiperazine-1-carboxamide], the IC50 was 10.8 nM.

`C[C@@H]1C(=O)NCCN1C(=O)NC(c1ccc(C(F)(F)F)nc1)c1ccc(F)c(Cl)c1F` (single isomer, unassigned) [Example 15B]: the IC50 is 59.9 nM.

On to `O=C1CN(C(=O)NC(c2ccc(F)c(Cl)c2)c2cccc(C(F)(F)F)n2)CCN1` (single isomer, unassigned) [Example 42, N—((R or S)-(3-chloro-4-fluorophenyl)(6-(trifluoromethyl)pyridin-2-yl)methyl)-3-oxopiperazine-1-carboxamide], for which the IC50 was 32.2 nM.

Consider `C[C@@H]1C(=O)NCCN1C(=O)NC(c1ccc(OC(F)(F)F)c(Cl)c1)c1cnc(C(F)(F)F)c(Cl)c1` (single isomer, unassigned) [Example 22B, (2R)-N-((S or R)-(3-chloro-4-(trifluoro-methoxy)phenyl)(5-chloro-6-(trifluoro-methyl)pyridin-3-yl)methyl)-2-methyl-3-oxopiperazine-1-carboxamide], for which the IC50 is 2.88 nM.

Consider `C[C@@H]1C(=O)NCCN1C(=O)NC(c1cnc(OCC(F)(F)F)nc1)c1ccc(F)c(Cl)c1F` (single isomer, unassigned) [Example 12A], for which the IC50 came out at 9.24 nM.

`O=C1CN(C(=O)NC(c2ccc(Cl)c(C(F)(F)F)n2)c2ccc(F)c(Cl)c2F)CCN1` (single isomer, unassigned) [Example 78B, N-((S or R)-(3-chloro-2,4-difluorophenyl)(5-chloro-6-(trifluoro-methyl)pyridin-2-yl)methyl)-3-oxopiperazine-1-carboxamide]: the IC50 came to 3.54 nM.

Regarding `C[C@@H]1C(=O)NCCN1C(=O)NC(c1ccc(C2CC2)nc1)c1ccc(F)c(Cl)c1F` (single isomer, unassigned) [Example 33B, (2R)-N-((S or R)-(3-chloro-2,4-difluoro-phenyl)(6-cyclo-propylpyridin-3-yl)methyl)-2-methyl-3-oxopiperazine-1-carboxamide], the IC50 was 514 nM.

Take `C[C@@H]1C(=O)NCCN1C(=O)NC(c1cnc(C(F)(F)F)nc1)c1ccc(F)c(Cl)c1F` (single isomer, unassigned) [Example 30B, (2R)-N-((S or R)-(3-chloro-2,4-difluoro-phenyl)(2-(trifluoro-methyl)pyrimidin-5-yl)methyl)-2-methyl-3-oxopiperazine-1-carboxamide]: the IC50 was 9.18 nM.

With `C[C@@H]1C(=O)NCCN1C(=O)NC(c1ccc(C#N)cc1)c1ccc(Cl)c(C(F)(F)F)n1` (single isomer, unassigned) [Example 76A], the IC50 came to 5.18 nM.

As for `C[C@@H]1C(=O)NCCN1C(=O)NC(c1ccc(C(F)F)nc1)c1ccc(F)c(Cl)c1F` (single isomer, unassigned) [Example 32B, (2R)-N-((s or R)-(3-chloro-2,4-difluoro-phenyl)(6-(difluoro-methyl)pyridin-3-yl)methyl)-2-methyl-3-oxopiperazine-1-carboxamide], the IC50 worked out at 13 nM.

For the compound `C[C@@H]1C(=O)NCCN1C(=O)NC(c1ccc(C(F)(F)F)nc1)c1ccc(Cl)c(C(F)(F)F)n1` (single isomer, unassigned) [Example 81B, (2R)-N-((S or R)-(5-chloro-6-(trifluoromethyl)pyridin-2-yl)(6-(trifluoro-methyl)pyridin-3-yl)methyl)-2-methyl-3-oxopiperazine-1-carboxamide], the IC50 was 110 nM.

As to `C[C@@H]1C(=O)NCCN1C(=O)NC(c1ccc(C#N)c(Cl)c1)c1cnc(C(F)(F)F)c(Cl)c1` (single isomer, unassigned) [Example 24B, (2R)-N-((S or R)-(3-chloro-4-cyano-phenyl)(5-chloro-6-(trifluoromethyl)pyridin-3-yl)methyl)-2-methyl-3-oxopiperazine-1-carboxamide], the IC50 turned out to be 2.84 nM.
